Results reported in patent US20220251081A1, “HETEROBICYCLIC INHIBITORS OF MAT2A AND METHODS OF USE FOR TREATING CANCER” (priority 2019, published 2022).

Assays:
MAT2A homodimer = biological target: T1, MAT2A homodimer (Homo sapiens, UniProt P31153); test: Biochemical assay: inhibition of recombinant MAT2A homodimer (phosphate release, PiColorLock Gold); conditions: MAT2A IC50 score; read-out: Enzyme Inhibition
T1 construct: inferred from Ni sepharose purification and imidazole elution; made in house; host or cells: Sf9 insect cells, recombinant baculovirus (Bac to Bac, pFASTBAC1 vector)
T1 sequence (P31153 whole entry): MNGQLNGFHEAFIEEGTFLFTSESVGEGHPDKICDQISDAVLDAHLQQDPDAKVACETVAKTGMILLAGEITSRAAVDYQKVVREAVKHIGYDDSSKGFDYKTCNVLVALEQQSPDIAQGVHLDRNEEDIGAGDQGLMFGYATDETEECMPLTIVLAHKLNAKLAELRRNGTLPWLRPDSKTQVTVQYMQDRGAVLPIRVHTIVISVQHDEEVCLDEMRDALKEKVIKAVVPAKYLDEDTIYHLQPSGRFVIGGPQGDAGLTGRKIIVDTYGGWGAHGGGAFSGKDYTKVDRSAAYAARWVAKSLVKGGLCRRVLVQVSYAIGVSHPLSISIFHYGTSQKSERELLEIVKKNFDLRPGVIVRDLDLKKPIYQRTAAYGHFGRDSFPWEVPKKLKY
Protocol: Mat2A protein was expressed by recombinant baculovirus in SF9 infected cells using the Bac to Bac system cloned into the pFASTBAC1 vector (Invitrogen, Carlsbad, Calif.). Recombinant MAT2A was isolated from the cell lysate of 150 g of infected cells using HP Ni sepharose column chromatography. Recombinant MAT2A homodimer was eluted with 250 and 500 mM imidazole, and fractions containing MAT2A were identified by sodium dodecyl sulfate polyacrylamide gel electrophoresis and pooled.
For determination of the inhibitory potency of compounds against the MAT2A homodimer, protein was diluted to 4 μg/mL in assay buffer (50 mM Tris, pH 8.0, 50 mM KCl, 15 mM MgCl2, 0.3 mM EDTA, 0.005% [w/v] bovine serum albumin [BSA]). Test compound was prepared in 100% dimethyl sulfoxide (DMSO) at 50× the desired final concentration. A 1 μL volume of compound dilution was added to 40 μL of enzyme dilution and the mixture was allowed to equilibrate for 60 minutes at 25° C. The enzymatic assay was initiated by the addition of 10 μL of substrate mix (500 μM ATP, pH 7.0, 40 μM L-methionine in 1× assay buffer), and the mixture was incubated for a further 60 minutes at 25° C. The reaction was halted and the liberated phosphate released by the enzyme in stoichiometric amounts by the production of S-adenosyl methionine (SAM) was measured using the PiColorLock Gold kit (Innova Biosciences, UK). Absolute product amounts were determined by comparison to a standard curve of potassium phosphate buffer, pH 8.0.

[1] = test system: SAM in HCT116 human colon carcinoma cell line with deleted MTAP gene; test: Cellular assay of target engagement (SAM): SAM level by LC-MS/MS after 72 hrs; assay type: cell-based; conditions: HCT-116, IC50 score, read-out: Cell 72 h SAM Inhibition (MTAP −/−)
Protocol: Cellular Assay of Target Engagement (SAM)
Measurement of MAT2A activity in cells was made by direct quantitation of the abundance of the product of its enzymatic activity, SAM. Cancer cells were treated with candidate MAT2A inhibitors for a suitable incubation period, and the cells were then lysed using a reagent which quenched any further enzyme activity. Soluble metabolites including SAM were collected and SAM itself was directly measured from the lysate using quantitative LC-MS/MS.
A typical assay was performed using an HCT116 human colon carcinoma cell line which was genetically engineered to delete the MTAP gene (commercially available from Horizon Discovery). This cell line was utilized because it was determined that loss of the MTAP gene predicts sensitivity to MAT2A inhibitors. Cells were plated in 96-well dishes at appropriate cell density. Following 24 hours, cells were then treated with the candidate MAT2A inhibitor. Prior to addition to cells, the compound was first serially diluted in 100% DMSO, typically as a 3-fold serial dilution starting at 500× top dose with 10 dose points including DMSO only control. Compound was then transferred to a working stock plate in cell culture media by adding 5 μL of compound in DMSO to 495 μL of cell culture media. This working stock was then added to cells via a further 5-fold dilution, by adding 25 μL of working stock to 100 μL of cells in culture media. Following compound addition, cells were incubated at 37° C./5% CO2 for 72 hrs.
To quantitate SAM levels following compound treatment, cells were gently washed once in ammonium carbonate buffer (75 mM at pH 7.4), placed on dry ice, and lysed with metabolite extraction buffer (80% cold methanol and 20% water (v/v) with acetic acid at 1M final concentration with 200 ng/mL deuterated d3-SAM as internal control). Following centrifugation at 4° C. at 3,200 rpm for 30 minutes, the supernatant was collected and stored at −80° C. until analysis by Liquid Chromatography with tandem Mass Spectrometry (LC-MS/MS). LC-MS/MS analysis was performed using an API6500 Mass Spectrometer (Sciex, Framingham, Mass., USA) operating in positive ion spray mode and equipped with a Waters UPLC Acquity (Waters, Milford, Mass., USA) BEH Amide column. Multiple Reaction Monitoring data was acquired for SAM and the d3-SAM standard, using a mass transition pair at m/z 399.2→250.1 and 402.2→250.1, respectively. In a typical LC-MS/MS analysis, the initial flow rate was 0.5 ml/min of 25% mobile phase A (acetonitrile and water at 5:95 (v/v) with 1% formic acid and 10 mM ammonium acetate) and 75% mobile phase B (acetonitrile and water at 95:5 (v/v) with 1% formic acid and 10 mM ammonium acetate), 0.2-0.5 minutes with 75%-35% mobile phase B, 25%-65% mobile phase A, at 0.5 min 65% mobile phase A and 35% mobile phase B, 1.0-1.1 minutes with 35%-75% mobile phase B, 65%-25% mobile phase A, at 1.1 min 25% mobile phase A and 75% mobile phase B with a total run time of 1.5 minutes.

HCT116 MTAP-/- = test: Inhibition of cellular proliferation, 4 days, Cell Titer Glo, HCT116 MTAP-/-; assay type: cell-based; conditions: Homo sapiens, HCT-116, 96 h, IC50 score, read-out: 4 Day Relative Growth Inhibition (MTAP −/−)
Protocol: (§1) Assay for Inhibition of Cellular Proliferation
(§2) Test compound impact on cancer cell growth was assessed by treating cancer cells with compound for 4 days and then measuring proliferation using an ATP-based cell proliferation readout (Cell Titer Glo, Promega Corporation).
(§3) In a typical assay an isogenic pair of HCT116 human colon carcinoma cell lines which vary only in MTAP deletion status (HCT116 MTAP +/+ and HCT116 MTAP−/−) were plated in 96-well dishes at appropriate cell density. Following 24 hours, cells were then treated with the candidate MAT2A inhibitor. Prior to addition to cells, the compound was first serially diluted in 100% DMSO, typically as a 3-fold serial dilution starting at 500× top dose with 10 dose points including DMSO only control. Compound was then transferred to a working stock plate in cell culture media by adding 5 μL of compound in DMSO to 495 μL of cell culture media. This working stock was then added to cells via a further 5-fold dilution, by adding 25 μL of working stock to 100 μL of cells in culture media. Following compound addition, cells were incubated at 37° C./5% C02 for 4 days.
(§4) To measure inhibition of cellular proliferation, cells were allowed to equilibrate to room temperature for 30 minutes, and were then treated with 125 μL of Cell Titer Glo reagent. The plate was then covered with aluminum foil and shaken for 15 minutes to ensure complete mixing and full cell lysis. Luminescent signal was then measured using a plate-based luminometer Veritas version 1.9.2 using ATP standard curve to confirm assay reproducibility from run to run. This luminescence measure was converted to a proliferation index by subtracting from each data point the ATP luminescence signal measured from a bank (no cells) well and dividing by the ATP luminescence signal measured in 0.2% DMSO control well adjusted for signal in blank well. Compound activity was then represented as a percentage change in proliferation relative to a within-plate DMSO control against log 10 of compound concentration in molar (M) units.

HCT116 MTAP +/+ = test: Inhibition of cellular proliferation, 4 days, Cell Titer Glo, HCT116 MTAP+/+; assay type: cell-based; conditions: Homo sapiens, HCT-116, 96 h, IC50 score, read-out: 4 Day Relative Growth Inhibition (MTAP +/+)
Protocol: as §1, §2, §3, §4

SMILES	IC50 (MAT2A homodimer) [nM]	IC50 [1] [nM]	IC50 (HCT116 MTAP-/-) [nM]	IC50 (HCT116 MTAP +/+) [nM]
CNc1ccc(-n2c(=O)c(-c3ccc4nn(C)cc4c3)cc3ccc(OCC(F)F)nc32)cn1 [Example 147]	< 100	< 100	< 100	100 to 1000
[2H]C([2H])([2H])Oc1ccc(-n2c(=O)c(-c3ccc4nn(C)cc4c3)cc3ccc(OCC)nc32)cc1 [Example 148]	< 100	< 100	< 100	100 to 1000
[2H]C([2H])([2H])Oc1ccc(-n2c(=O)c(-c3ccc4nn(C)cc4c3)cc3ccc(OCC(F)F)nc32)cc1 [Example 149]	< 100	< 100	< 100	100 to 1000
CCOc1ccc2cc(-c3ccc4nn(C)cc4c3)c(=O)n(-c3ccc4scnc4c3)c2n1 [Example 150]	< 100	< 100	< 100	≥ 1000
CCOc1ccc2cc(-c3ccc4nn(C)cc4c3)c(=O)n(-c3ccc(C(F)(F)F)nc3)c2n1 [Example 151, 7-ethoxy-3-(2-methyl-2H-indazol-5-yl)-1-(6-(trifluoromethyl)pyridin-3-yl)-1,8-naphthyridin-2(1H)-one]	< 100	< 100	< 100	≥ 1000
CCOc1ccc2cc(-c3ccc4nn(C)cc4c3)c(=O)n(-c3ccc(OC(F)(F)F)nc3)c2n1 [Example 152]	< 100	< 100	< 100	≥ 1000
CCOc1ccc2cc(-c3ccc4nn(C)cc4c3)c(=O)n(-c3ccc(OC(F)(F)F)cc3)c2n1 [Example 153]	< 100	< 100	< 100	≥ 1000
CCOc1ccc2cc(-c3ccc4nn(C)cc4c3)c(=O)n(-c3ccc(OC(F)F)nc3)c2n1 [Example 155]	< 100	< 100	< 100	≥ 1000
CCOc1ccc2cc(-c3ccc4nn(C)cc4c3)c(=O)n(-c3ccc(OC)nc3)c2n1 [Example 157]	< 100	< 100	< 100	100 to 1000
CCOc1ccc2cc(-c3ccc(OC)cc3)c(=O)n(-c3ccc(OC(F)F)nc3)c2n1 [Example 158]	< 100	100 to 1000	100 to 1000	≥ 1000
CCOc1ccc2cc(-c3ccc(OC)cc3)c(=O)n(-c3ccc(NC)nc3)c2n1 [Example 159]	< 100	< 100	100 to 1000	≥ 1000
CCOc1ccc2cc(-c3ccc4ncccc4c3)c(=O)n(-c3ccc(Cl)cc3)c2n1 [Example 160]	< 100	< 100	100 to 1000	≥ 1000
CCOc1ccc2cc(-c3ccc4nn(C)cc4c3)c(=O)n(-c3ccc(C4CC4)nc3)c2n1 [Example 161]	< 100	< 100	< 100	100 to 1000
CCOc1ccc2cc(-c3ccc(OC)cc3)c(=O)n(-c3ccc(C4CC4)nc3)c2n1 [Example 162]	< 100	100 to 1000	100 to 1000	≥ 1000
CCOc1ccc2cc(-c3ccc(OC)cc3)c(=O)n(-c3ccc(C4CC4)cc3)c2n1 [Example 163]	< 100	100 to 1000	100 to 1000	≥ 1000
CCOc1cc(C)c2cc(-c3ccc4nn(C)cc4c3)c(=O)n(-c3ccc(Cl)cc3)c2n1 [Example 164]	< 100	< 100	< 100	≥ 1000
CCOc1ccc2cc(-c3ccc4nn(C)cc4c3)c(=O)n(-c3ccc(C4CC4)cc3)c2n1 [Example 165]	< 100	< 100	< 100	≥ 1000
Cn1cc2cc(-c3cc4ccc(OCC(F)(F)F)nc4n(-c4ccc(C5CC5)nc4)c3=O)ccc2n1 [Example 166]	< 100	< 100	< 100	≥ 1000
CNc1ccc(-n2c(=O)c(-c3ccc4nn(C)cc4c3)cc3ccc(OCC(F)(F)F)nc32)cn1 [Example 167]	< 100	< 100	< 100	≥ 1000
Cn1cc2cc(-c3cc4ccc(OCC(F)F)nc4n(-c4ccc(C5CC5)nc4)c3=O)ccc2n1 [Example 168]	< 100	< 100	< 100	≥ 1000
Cn1cc2cc(-c3cc4ccc(OCC(F)F)nc4n(-c4ccc5scnc5c4)c3=O)ccc2n1 [Example 169]	< 100	< 100	100 to 1000	≥ 1000
COc1ccc(-n2c(=O)c(-c3ccc(OC)nc3)cc3cnc(NCC(F)(F)F)nc32)cc1 [Example 171]	< 100	100 to 1000	≥ 1000	≥ 1000
COc1ccc(-n2c(=O)c(-c3ccc4nccn4c3)cc3cnc(NCC(F)(F)F)nc32)cc1 [Example 172]	< 100	< 100	100 to 1000	≥ 1000
COc1ccc(-n2c(=O)c(-c3ccc4c(c3)CCO4)cc3cnc(NCC(F)(F)F)nc32)cc1 [Example 173]	< 100	< 100	< 100	≥ 1000
COc1ccc(-n2c(=O)c(-c3ccc4[nH]cnc4c3)cc3cnc(NCC(F)(F)F)nc32)cc1 [Example 174]	< 100	< 100	≥ 1000	≥ 1000
